BindingDB's records for doi:10.7270/Q2SJ1J08 (University of Pittsburgh, 2007)

The compounds below were run against T1, M-phase inducer phosphatase 2 (Homo sapiens, UniProt P30305) (assay: Cdc25B catalytic domain inhibitors, dose response, biochemical, 25 mM DTT, catalase, probe assessment (AID 669)).
T1 sequence (P30305 whole entry): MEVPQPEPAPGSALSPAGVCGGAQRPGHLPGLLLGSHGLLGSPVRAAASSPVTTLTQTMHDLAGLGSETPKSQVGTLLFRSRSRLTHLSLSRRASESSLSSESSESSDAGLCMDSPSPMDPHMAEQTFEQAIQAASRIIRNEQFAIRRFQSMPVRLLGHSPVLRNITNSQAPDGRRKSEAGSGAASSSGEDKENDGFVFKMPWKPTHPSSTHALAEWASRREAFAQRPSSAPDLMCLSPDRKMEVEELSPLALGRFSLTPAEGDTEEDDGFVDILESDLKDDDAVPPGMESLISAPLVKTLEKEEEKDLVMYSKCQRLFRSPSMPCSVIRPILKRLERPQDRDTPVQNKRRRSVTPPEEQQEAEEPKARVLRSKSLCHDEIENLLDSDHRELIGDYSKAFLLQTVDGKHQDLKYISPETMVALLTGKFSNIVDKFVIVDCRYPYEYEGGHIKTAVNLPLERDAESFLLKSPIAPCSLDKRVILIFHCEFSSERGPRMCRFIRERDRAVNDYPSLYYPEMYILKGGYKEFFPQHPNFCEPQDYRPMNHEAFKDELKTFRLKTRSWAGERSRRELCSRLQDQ

Structure (SMILES)	IC50 [µM]
[O-]/[N+](=C\c1ccncc1)c1ccccc1	> 50
Nc1cccc2cnccc12 [isoquinolin-5-amine]	> 50
CC(=O)Nc1cc(OC(C)=O)c2nonc2c1OC(C)=O [Acetic acid 7-acetoxy-5-acetylamino-benzo[1,2,5]oxadiazol-4-yl ester]	> 50
CCn1nc(-c2ccccc2)nc2c(=O)n(C)c(=O)nc1-2 [1-Ethyl-6-methyl-3-phenyl-1H-pyrimido[5,4-e][1,2,4]triazine-5,7-dione]	> 50
Cc1ccccc1Nc1cc2ccccc2c(O)n1 [3-[(2-methylphenyl)amino]-2H-isoquinolin-1-one]	> 50
Cc1ccc2c(c1)C1C=CCC1C(C(=O)O)N2 (stereo not drawn) [MLS-0067149.0001]	12.1
O=C(NC1(O)C(=O)c2ccccc2C1=O)c1ccccc1 [N-(2-hydroxy-1,3-dioxo-2-indenyl)benzamide]	> 50
O=C1C=Cc2ccccc2C1=O [1,2-dihydronaphthalene-1,2-dione]	> 50
O=C(Nc1ccc2nc(-c3ccco3)c(-c3ccco3)nc2c1)N1CCCCCC1	40.9
CCn1nc(-c2cccs2)nc2c(=O)n(C)c(=O)nc1-2 [1-ethyl-6-methyl-3-thiophen-2-yl-pyrimido[5,4-e][1,2,4]triazine-5,7-dione]	> 50
[O-]/[N+](=C\c1ccc(OC(F)F)cc1)c1ccccc1 [1-[4-(difluoromethoxy)phenyl]-N-phenylmethanimine oxide]	> 50
COc1ccc(Br)cc1C=c1sc2nc(-c3ccco3)nn2c1=O [5-[(5-bromanyl-2-methoxy-phenyl)methylidene]-2-(furan-2-yl)-[1,3]thiazolo[3,2-b][1,2,4]triazol-6-one]	16.8
Cn1ncnc2c(=O)n(C)c(=O)nc1-2	> 50
O=C1Cc2ccccc2C(=O)N1CCc1ccccc1 [2-(2-phenylethyl)-4H-isoquinoline-1,3-dione]	> 50
Cc1ccc2c(c1C)NC(C(=O)O)C1CC=CC21 (stereo not drawn)	20.5
c1ccc(CSc2nnc(-c3ccco3)c(-c3ccco3)n2)cc1 [MLS-0029114.0001]	> 50
N#Cc1c(N)sc(=S)c2c1CCN(Cc1ccccc1)C2 [3-Amino-7-benzyl-1-thioxo-5,6,7,8-tetrahydro-1H-thiopyrano[3,4-c]pyridine-4-carbonitrile]	> 50
COc1cccc2c(C)c(C(=O)O)[nH]c12	11.4
O=C(O)C1Nc2c(O)cccc2C2C=CCC12 (stereo not drawn)	16

Other lines, results leading:

IC50 [µM]	Structure (SMILES)
> 50	CCOC(=O)C(C(=O)OCC)c1cc(Br)c2noc3c2c1C(=O)c1ccccc1-3 [MLS000038842]
13.2	COc1cccc2c1NC(C(=O)O)C1CC=CC21 (stereo not drawn) [SMR000009698]
> 50	O=C1C=Cc2ccccc2/C1=C/NC12CN3CCN(CN(C3)C1)C2 [MLS000071484]
> 50	N#Cc1c(N2CCCC2)nc(N)c2c(N)nc(N3CCCC3)cc12 [SMR000061605]
> 50	COc1ccc2noc3c2c1C(=O)c1ccccc1-3 [MLS000106874]
> 50	CCOc1ccc2noc3c2c1C(=O)c1ccccc1-3 [MLS000106837]
> 50	Cc1c(N=c2c(=O)c3ccccc3c2=O)c(=O)n(-c2ccccc2)n1C [MLS000105950]
> 50	Oc1nc(Nc2ccccc2)cc2ccccc12 [MLS000043701]
8.69	O=C(OC1CCCCC1)c1ccc2c(c1)C1C=CCC1C(C(=O)O)N2 (stereo not drawn) [SMR000019385]
